The text below walks through data of article PMC9154796, “Triazoloquinoxalines-based DNA intercalators-Topo II inhibitors: design, synthesis, docking, ADMET and anti-proliferative evaluations” (Journal of Enzyme Inhibition and Medicinal Chemistry, 2022).

One data set relates to HepG2. Nature of the data set: MTT colorimetric anti-proliferative assay. To be noted: Homo sapiens, HepG2, 72 h, read-out: IC50 HepG2.
In another data set the test system is HCT116. Nature of the data set: MTT colorimetric anti-proliferative assay. Particulars: Homo sapiens, HCT-116, 72 h, read-out: IC50 HCT116.
In a further data set the test system is MCF-7. Nature of the data set: MTT colorimetric anti-proliferative assay. To be noted: Homo sapiens, MCF7, 72 h, read-out: IC50 MCF-7.
The target of the next data set is human Topo II (Homo sapiens, UniProt P11388). Put plainly: In vitro topoisomerase II inhibitory activity. In kind it is biochemical. Particulars: supercoiled pHot1 DNA, mean ± SD of three experiments. Here is the method:
A mixture of human Topo II (2 µl), substrate super coiled pHot1 DNA (0.25 µg), 50 µg/ml test compound (2 µl), and assay buffer (4 µl). […] Then, the DNA was run for 1–2 h on 1% agarose gel in BioRad gel electrophoresis system followed by staining with GelRedTM stain for 2 h and destained for 15 min with TAE buffer. The gel was imaged via BioRad’s Gel DocTMEZ system. Both supercoiled and linear strands of DNA were incorporated into the gel as markers for DNA-Topo II intercalators. By using the GraphPad Prism version 5.0, the values of IC50 were calculated. Each reaction was performed in duplicate, and at least three independent determinations of each IC50 were made.

For a further data set, the system named is VERO normal cells. Nature of the data set: Cytotoxicity against VERO normal cell lines. In kind it is cell-based. To be noted: for IC50: Chlorocebus sabaeus, VERO normal cells, mean ± SD of three experiments; for fold safer in VERO normal cells compared to breast cancer cell lines (MCF-7): VERO versus MCF-7. Here is the method:
The cytotoxicity of these compounds against the cancer cell lines was from 3.41 to 9.51 µM. Derivatives 7b, 7c, 7e and 7g are respectively, 7.88, 10.81, 16.16 and 4.50 fold safer in VERO normal cells compared to breast cancer cell lines (MCF-7, the most sensitive cells).
The cytotoxicity assays were performed at Al-Azhar University, Pharmacology & Toxicology Department, Cairo, Egypt. Cancer cells from different cancer cell lines HCT-116, HepG2 and MCF-7, were purchased from ATCC, Manassas, USA and grown on the appropriate growth medium Roswell Park Memorial Institute medium (RPMI 1640) supplemented with […] of streptomycin, 100 units/mL of penicillin and 10% of heat-inactivated foetal bovine serum in a humidified, 5% (v/v) CO2 atmosphere at 37 °C Cytotoxicity assay by 3-[4,5-dimethylthiazole-2-yl]-2,5-diphenyltetrazolium bromide (MTT).
Cancer cell lines were trypsinized, counted and seeded into 96-well microtiter plates.

The target in the next data set is DNA. Nature of the data set: In vitro DNA/methyl green assay (DNA binding). To be noted: DNA/methyl green displacement, mean ± SD of three experiments. The source says: The extremely potent 6e, 7b, 7c, 7e and 7g were further assessed for their DNA-binding according to the reported procedure using methyl green dye[21]^,[22]^,[49]. DNA-binding affinities results were presented as IC50 and briefed in Table 3.
Methyl green dye can bind DNA to form coloured DNA/methyl green reversible complex. These complexes at neutral pH are still stable. The methyl green is displaced from DNA upon intercalating agents addition. Colourless carbinol was formed by the addition of H2O to the dye, leading to a dramatic decrease in spectrophotometric absorbance. ΔA value (the difference between DNA/methyl green complex and free cabinol) provides the simplest means for detecting the DNA-binding affinity and relative binding strength. IC50 values were determined using the GraphPadPrism 5.0 software[21]^,[22]^,[49].

Data set [1] concerns melanoma A375 cancer cells. The arrangement: method as in PMID 18513976. To be noted: cited from earlier work.

One may read the melting point as the temperature, or range, at which the solid turns liquid. Usually IC50 stands for the point on the concentration scale where inhibition reaches its midpoint.

human Topo II, sequence (P11388 whole entry): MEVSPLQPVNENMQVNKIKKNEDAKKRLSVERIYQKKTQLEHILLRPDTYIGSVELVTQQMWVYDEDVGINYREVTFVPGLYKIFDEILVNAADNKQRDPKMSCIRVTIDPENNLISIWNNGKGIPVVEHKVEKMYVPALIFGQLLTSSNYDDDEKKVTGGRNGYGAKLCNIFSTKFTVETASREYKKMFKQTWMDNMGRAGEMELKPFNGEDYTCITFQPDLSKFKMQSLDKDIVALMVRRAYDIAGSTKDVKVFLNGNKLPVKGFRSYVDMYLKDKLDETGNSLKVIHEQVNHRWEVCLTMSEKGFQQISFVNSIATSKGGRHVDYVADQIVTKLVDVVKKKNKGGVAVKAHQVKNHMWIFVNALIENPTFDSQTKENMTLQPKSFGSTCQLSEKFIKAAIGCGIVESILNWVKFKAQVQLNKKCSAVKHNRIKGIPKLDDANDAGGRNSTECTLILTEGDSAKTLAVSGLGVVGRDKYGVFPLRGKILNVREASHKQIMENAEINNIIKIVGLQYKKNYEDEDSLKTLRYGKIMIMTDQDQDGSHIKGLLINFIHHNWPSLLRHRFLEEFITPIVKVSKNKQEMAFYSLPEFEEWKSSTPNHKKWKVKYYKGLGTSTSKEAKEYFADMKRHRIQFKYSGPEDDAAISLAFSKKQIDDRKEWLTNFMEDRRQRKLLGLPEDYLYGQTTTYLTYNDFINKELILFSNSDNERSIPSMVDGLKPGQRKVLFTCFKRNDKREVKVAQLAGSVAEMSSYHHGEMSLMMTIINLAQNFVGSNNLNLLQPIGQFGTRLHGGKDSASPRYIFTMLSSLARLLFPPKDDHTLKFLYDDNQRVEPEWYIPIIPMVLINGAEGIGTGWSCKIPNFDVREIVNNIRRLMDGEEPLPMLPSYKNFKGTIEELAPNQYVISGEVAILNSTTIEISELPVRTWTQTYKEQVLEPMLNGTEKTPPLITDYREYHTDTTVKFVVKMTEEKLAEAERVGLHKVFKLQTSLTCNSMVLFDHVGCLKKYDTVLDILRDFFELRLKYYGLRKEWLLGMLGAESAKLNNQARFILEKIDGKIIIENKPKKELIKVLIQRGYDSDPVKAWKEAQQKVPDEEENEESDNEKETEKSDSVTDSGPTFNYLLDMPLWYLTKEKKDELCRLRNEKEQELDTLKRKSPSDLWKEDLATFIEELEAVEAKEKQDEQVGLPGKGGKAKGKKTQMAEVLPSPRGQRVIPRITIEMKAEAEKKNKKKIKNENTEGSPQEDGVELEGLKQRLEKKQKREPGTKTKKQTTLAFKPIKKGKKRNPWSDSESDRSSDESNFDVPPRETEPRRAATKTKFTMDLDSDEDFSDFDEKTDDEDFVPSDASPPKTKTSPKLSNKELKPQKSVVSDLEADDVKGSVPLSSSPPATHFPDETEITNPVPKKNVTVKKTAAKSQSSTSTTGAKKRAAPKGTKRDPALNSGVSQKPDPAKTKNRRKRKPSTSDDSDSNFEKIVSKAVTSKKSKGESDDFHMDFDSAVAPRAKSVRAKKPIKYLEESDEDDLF

Molecule `c1ccc(C2CC(c3ccc(Nc4nc5ccccc5n5cnnc45)cc3)=NN2)cc1` (stereo not shown) [Compound 7a, N-{4–(5-Phenyl-4,5-dihydro-1H-pyrazol-3-yl)phenyl}-[1,2, 4]triazolo[4,3-a]quinoxalin-4-amine] showed a melting point of 150 to 152 °C. Further, the IC50 in the data set on HepG2 worked out at 20.3 ± 1.9 µM. The IC50 with HCT116 was found to be 18.2 ± 1.6 µM. Further, in the data set on MCF-7, the IC50 came out at 15.4 ± 1.42 µM.

`O=C(C=Cc1ccc([N+](=O)[O-])cc1)c1ccc(Nc2nc3ccccc3n3cnnc23)cc1` [Compound 6h, 1-{4-([1,2, 4]Triazolo[4,3-a]quinoxalin-4-ylamino)phenyl}-3–(4-nitrophenyl)prop-2-en-1-one] registered a melting point of 261 to 263 °C. In addition, the IC50 in the data set with HepG2 was determined as 15.6 ± 1.2 µM. The IC50 in the data set with HCT116 turned out to be 12.4 ± 1.1 µM. The IC50 in the data set with MCF-7 came out at 11.7 ± 1.68 µM.

`O=C(C=Cc1c(Cl)cccc1Cl)c1ccc(Nc2nc3ccccc3n3cnnc23)cc1` [Compound 6d, 1-{4-([1,2, 4]Triazolo[4,3-a]quinoxalin-4-ylamino)phenyl}-3–(2,6-dichlorophenyl)prop-2-en-1-one] came in with a melting point of 260 to 263 °C. Moreover, in the data set with HepG2, the IC50 was determined as 16.9 ± 1.4 µM. In addition, the IC50 in the data set with HCT116 worked out at 19.4 ± 1.7 µM. In addition, in the data set with MCF-7, the IC50 came to 14.6 ± 1.57 µM.

Turning to `O=C(C=Cc1ccc(Cl)cc1)c1ccc(Nc2nc3ccccc3n3cnnc23)cc1` [Compound 6b, 1-{4-([1,2, 4]Triazolo[4,3-a]quinoxalin-4-ylamino)phenyl}-3–(4-chlorophenyl)prop-2-en-1-one], the melting point lay in the range of 240 to 243 °C. For the same molecule, the IC50 with HepG2 came to 35.2 ± 3.3 µM. In the data set with HCT116, the IC50 turned out to be 31.2 ± 1.4 µM. Besides, the IC50 in the data set with MCF-7 was 25.8 ± 2.8 µM.

As to `Clc1ccc(C2CC(c3ccc(Nc4nc5ccccc5n5cnnc45)cc3)=NN2)cc1` (stereo not shown) [Compound 7b, N-{4-[5–(4-Chlorophenyl)-4,5-dihydro-1H-pyrazol-3-yl]phenyl}-[1,2, 4]triazolo[4,3-a]quinoxalin-4-amine], the IC50 on human Topo II is 1.05 ± 0.4 µM; with VERO normal cells, 46.32 ± 0.2 µM; with HepG2, 7.46 ± 0.13 µM; in the data set on HCT116, 6.9 ± 0.95 µM; at DNA it was 32.5 ± 3 µM; with MCF-7 it was 5.88 ± 0.74 µM. In addition, the “fold safer in VERO normal cells compared to breast cancer cell lines (MCF-7)” value (from here on “fold safer in VERO normal cells”) in the data set on VERO normal cells is 7.88 fold.

With `Clc1cccc(Cl)c1C1CC(c2ccc(Nc3nc4ccccc4n4cnnc34)cc2)=NN1` (stereo not shown) [Compound 7d, N-{4-[5–(2,6-Dichlorophenyl)-4,5-dihydro-1H-pyrazol-3-yl]phenyl}-[1,2, 4]triazolo[4,3-a]quinoxalin-4-amine], the melting point was in the range of 176 to 178 °C. Moreover, in the data set with HepG2, the IC50 worked out at 12 ± 1.2 µM. Moreover, the IC50 in the data set on HCT116 was found to be 10.2 ± 0.22 µM. For the same molecule, the IC50 in the data set on MCF-7 is 7.56 ± 0.92 µM.

`CC(=O)c1ccc(Nc2nc3ccccc3n3cnnc23)cc1` [Compound 5, 1-{4-([1,2, 4]Triazolo[4,3-a]quinoxalin-4-ylamino)phenyl}ethan-1-one] returned a melting point of 171 to 172 °C. Moreover, in the data set with HepG2, the IC50 turned out to be 12.7 ± 0.13 µM. Moreover, in the data set with HCT116, the IC50 was determined as 11.4 ± 1.4 µM. Besides, the IC50 in the data set with MCF-7 amounted to 10.3 ± 1.28 µM.

Take `Fc1ccc(C2CC(c3ccc(Nc4nc5ccccc5n5cnnc45)cc3)=NN2)cc1` (stereo not shown) [Compound 7c, N-{4-[5–(4-Fluorophenyl)-4,5-dihydro-1H-pyrazol-3-yl]phenyl}-[1,2, 4]triazolo[4,3-a]quinoxalin-4-amine]: the IC50 turned out to be 0.94 ± 0.4 µM at human Topo II; 48.11 ± 0.2 µM in the data set on VERO normal cells; 6.33 ± 0.14 µM in the data set with HepG2; 6.22 ± 0.63 µM with HCT116; 31.2 ± 2.9 µM at DNA; 4.45 ± 0.14 µM with MCF-7. Moreover, the “fold safer in VERO normal cells” value in the data set with VERO normal cells was 10.81 fold.

As to `O=[N+]([O-])c1ccc(C2CC(c3ccc(Nc4nc5ccccc5n5cnnc45)cc3)=NN2)cc1` (stereo not shown) [Compound 7g, N-{4-[5–(4-Nitrophenyl)-4,5-dihydro-1H-pyrazol-3-yl]phenyl} -[1,2, 4]triazolo[4,3-a]quinoxalin-4-amine], the IC50 against human Topo II is 1.22 ± 0.4 µM; with VERO normal cells, 38.77 ± 0.16 µM; in the data set on HepG2 it was 9.51 ± 1.1 µM; in the data set with HCT116, 8.96 ± 0.37 µM; at DNA, 36.5 ± 0.4 µM; in the data set with MCF-7 it was 8.62 ± 0.95 µM. Further, in the data set on VERO normal cells, the “fold safer in VERO normal cells” value is 4.50 fold.

In the case of `CNc1nc2ccccc2n2c(CCc3ccccc3)cnc12` [EAPB0203], in data set [1], the “fold more active than fotemustine” value is 110 fold and the “fold more active than imiquimod” value was 45 fold.

Turning to `COc1ccc(C=CC(=O)c2ccc(Nc3nc4ccccc4n4cnnc34)cc2)cc1` [Compound 6f, 1-{4-([1,2, 4]Triazolo[4,3-a]quinoxalin-4-ylamino)phenyl}-3–(4-methoxyphenyl)prop-2-en-1-one], the melting point was 250 to 253 °C. Also, in the data set on HepG2, the IC50 was determined as 18 ± 1.6 µM. The IC50 with HCT116 was 16.4 ± 1.7 µM. The IC50 in the data set on MCF-7 worked out at 13.2 ± 1.39 µM.

Consider `Cc1ccc(C=CC(=O)c2ccc(Nc3nc4ccccc4n4cnnc34)cc2)cc1` [Compound 6e, 1-{4-([1,2, 4]Triazolo[4,3-a]quinoxalin-4-ylamino)phenyl}-3-(p-tolyl)prop-2-en-1-one], for which the melting point lay within 245 to 247 °C. The molecule further showed an IC50 against human Topo II of 1.27 ± 0.4 µM. For the same molecule, the IC50 with HepG2 was 10.9 ± 1.9 µM. For the same molecule, in the data set with HCT116, the IC50 turned out to be 10.2 ± 1.7 µM. Also, at DNA, the IC50 was determined as 38 ± 0.4 µM. The IC50 in the data set with MCF-7 is 9.95 µM.

`O=C(C=Cc1ccccc1)c1ccc(Nc2nc3ccccc3n3cnnc23)cc1` [Compound 6a, 1-{4-([1,2, 4]Triazolo[4,3-a]quinoxalin-4-ylamino)phenyl}-3-phenylprop-2-en-1-one] came in with a melting point of 275 to 277 °C. For the same molecule, in the data set with HepG2, the IC50 came out at 14.06 ± 0.13 µM. In addition, the IC50 in the data set with HCT116 is 11.2 ± 1.2 µM. In addition, the IC50 in the data set on MCF-7 is 10.1 ± 1.31 µM.

For the molecule `O=C(C=Cc1cccc([N+](=O)[O-])c1)c1ccc(Nc2nc3ccccc3n3cnnc23)cc1` [Compound 6g, 1-{4-([1,2, 4]Triazolo[4,3-a]quinoxalin-4-ylamino)phenyl}-3–(3-nitrophenyl)prop-2-en-1-one], the melting point lay in the range of 257 to 259 °C. Also, the IC50 in the data set on HepG2 came out at 17.2 ± 1.5 µM. Also, the IC50 in the data set with HCT116 was determined as 13.7 ± 1.7 µM. Further, the IC50 with MCF-7 amounted to 12.2 ± 1.03 µM.

`Cc1ccc(C2CC(c3ccc(Nc4nc5ccccc5n5cnnc45)cc3)=NN2)cc1` (stereo not shown) [Compound 7e, N-{4-[5-(p-Tolyl)-4,5-dihydro-1H-pyrazol-3-yl]phenyl}-[1,2, 4]triazolo[4,3-a]quinoxalin-4-amine]: the IC50 against human Topo II is 0.89 ± 0.4 µM; in the data set on VERO normal cells it was 55.09 ± 0.16 µM; in the data set on HepG2, 6.15 ± 1.2 µM; in the data set on HCT116, 5.75 ± 0.37 µM; on DNA it was 29.1 ± 2.2 µM; with MCF-7, 3.41 ± 0.43 µM. In the data set with VERO normal cells, the “fold safer in VERO normal cells” value is on record as 16.16 fold.

As to `COc1cccc2c1C(=O)c1c(O)c3c(c(O)c1C2=O)C[C@@](O)(C(=O)CO)C[C@@H]3O[C@H]1C[C@H](N)[C@H](O)[C@H](C)O1` [Doxorubicin, reference compound], the IC50 was found to be 31.3 ± 1.8 µM on DNA and 6.75 ± 0.4 µM with MCF-7.

With `O=C(C=Cc1ccc(F)cc1)c1ccc(Nc2nc3ccccc3n3cnnc23)cc1` [Compound 6c, 1-{4-([1,2, 4]Triazolo[4,3-a]quinoxalin-4-ylamino)phenyl}-3–(4-fluorophenyl)prop-2-en-1-one], the melting point was 247 to 249 °C. Also, the IC50 with HepG2 turned out to be 11.3 ± 1.1 µM. Moreover, in the data set on HCT116, the IC50 came out at 9.53 ± 0.93 µM. Also, the IC50 in the data set with MCF-7 was 8.61 ± 0.62 µM.

Turning to `O=[N+]([O-])c1cccc(C2CC(c3ccc(Nc4nc5ccccc5n5cnnc45)cc3)=NN2)c1` (stereo not shown) [Compound 7f, N-{4-[5–(3-Nitrophenyl)-4,5-dihydro-1H-pyrazol-3-yl]phenyl} -[1,2, 4]triazolo[4,3-a]quinoxalin-4-amine], the melting point is 195 to 197 °C. The IC50 in the data set on HepG2 was 17.3 ± 1.9 µM. Also, the half-maximal inhibitory concentration (IC50) in the data set with HCT116 came out at 16.2 ± 1.6 µM. The IC50 with MCF-7 is 14.5 ± 1.03 µM.
